Patent publication US8445477B2, “Azetidinyl diamides as monoacylglycerol lipase inhibitors” (Janssen Pharmaceutica, NV, priority 2009, dated 2013)

What was measured:
[1] = tested on: CFA-induced thermal hypersensitivity of the rat hind paw; experiment: CFA-Induced Paw Radiant Heat Hypersensitivity; type: in vivo; conditions: 30 mg/kg p.o., HPβCD, group mean values, maximum at any time point up to 180 or 300 min
Procedure: Each rat was placed in a test chamber on a warm glass surface and allowed to acclimate for approximately 10 min. A radiant thermal stimulus (beam of light) was then focused through the glass onto the plantar surface of each hind paw in turn. The thermal stimulus was automatically shut off by a photoelectric relay when the paw was moved or when the cut-off time was reached (20 sec for radiant heat at ˜5 amps). An initial (baseline) response latency to the thermal stimulus was recorded for each animal prior to the injection of complete Freund's adjuvant (CFA). 24 h following intraplantar CFA injection, the response latency of the animal to the thermal stimulus was then re-evaluated and compared to the animal's baseline response time. […] Post-compound treatment withdrawal latencies were assessed at fixed time intervals, typically 30, 60, 120, 180, and 300 min.
The percent reversal (% R) of hypersensitivity was calculated in one of two different ways: 1) using group mean values or 2) using individual animal values. […]
Method 1. For all compounds, the % R of hypersensitivity was calculated using the mean value for groups of animals at each time point according to the following formula: % reversal=[(group treatment response−group CFA response)/(group baseline response−group CFA response)]×100 Results are given for the maximum % reversal observed for each compound at any time point tested. […]

[2] = target: T1, MGL in rat brain homogenate (Rattus norvegicus, UniProt Q8R431); experiment: 2-AG Accumulation Assay (rat brain homogenate); type: biochemical; conditions: compound 1 μM, percent vehicle = 2-AG accumulation with compound / vehicle ×100, read-out: Rat Brain 2AG % VehCntrl (%) @ 1 μM
T1 construct: one g rat brain was homogenized; from tissue; host or cells: rat brain homogenate
T1 sequence (Q8R431 1-303): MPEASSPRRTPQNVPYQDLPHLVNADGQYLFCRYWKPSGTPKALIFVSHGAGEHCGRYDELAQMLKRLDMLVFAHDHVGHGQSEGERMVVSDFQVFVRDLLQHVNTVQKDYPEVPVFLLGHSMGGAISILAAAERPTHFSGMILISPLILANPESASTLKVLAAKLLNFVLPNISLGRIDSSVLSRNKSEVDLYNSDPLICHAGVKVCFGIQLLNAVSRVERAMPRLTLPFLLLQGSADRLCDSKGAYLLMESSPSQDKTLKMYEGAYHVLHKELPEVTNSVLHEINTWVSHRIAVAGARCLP

| activity at 1 µM [2] | Structure (SMILES) | Method 1: peak % reversal [1] |
| --- | --- | --- |
|  | O=C(c1ccc(-c2cccc(C(F)(F)F)c2)c(Cl)c1)N1CC(N2CCN(C(=O)c3cscn3)CC2)C1 [Cpd 1102] | 38% |
| 828% | O=C(c1ccc2c(ccn2-c2ncc(C(F)(F)F)cc2Cl)c1)N1CC(N2CCN(C(=O)c3nccs3)CC2)C1 [Cpd 1116] |  |
